Test results from US9440982B2 (Eolas Therapeutics, Inc., priority 2012, dated 2016).

target: T1, OX1 (Homo sapiens, UniProt O43613); experiment: Orexin receptor cell-based functional assay, [Ca2+]i by FLIPR, CHO-OX1 cells; details: CHO-OX1 cells, [Ca2+]i by FLIPR, antagonist dose-range 0.1 nM-10 μM, EC90 of OXA; read-out: OX1
T1 construct: expressed in transfected cells; host or cells: CHO (CHO-OX1, kept under selection antibiotic)
T1 sequence (O43613 1-425): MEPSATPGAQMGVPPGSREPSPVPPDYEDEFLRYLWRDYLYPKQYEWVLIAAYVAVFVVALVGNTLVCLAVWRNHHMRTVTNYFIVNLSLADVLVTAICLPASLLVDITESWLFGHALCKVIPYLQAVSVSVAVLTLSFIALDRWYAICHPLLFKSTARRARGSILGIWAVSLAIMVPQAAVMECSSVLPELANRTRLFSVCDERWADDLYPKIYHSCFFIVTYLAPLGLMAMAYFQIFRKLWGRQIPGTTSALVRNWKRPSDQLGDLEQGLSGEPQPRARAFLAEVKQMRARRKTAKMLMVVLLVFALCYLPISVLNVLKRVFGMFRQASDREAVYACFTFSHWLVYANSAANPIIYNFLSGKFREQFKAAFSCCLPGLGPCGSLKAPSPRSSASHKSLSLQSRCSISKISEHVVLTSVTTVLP
Procedure: Measurement of [Ca^2+]i using a FLIPR: CHO—OX1 or CHO—OX2 cells are seeded into black-walled clear-base 384-well plates (Costar) at a density of 20,000 cells per well in F12-K medium supplemented with 10% FBS and selection antibiotic (500 ug/ml G418 or 15 ug/ml Blasticidin) and cultured overnight. The cells are incubated with equal volume of calcium4 loading buffer (Molecular Devices, Inc.) containing 2.5 mM probenecid at 37° C. for 30 min, followed by putative OX1 or OX2 receptor antagonists (dose-range 0.1 nM-10 μM) for another 30 min.
The cells are incubated with equal volume of calcium6 loading buffer (Molecular Devices, Inc.) containing 2.5 mM probenecid at 37° C. for 2 h, followed by test compounds (dose-range 0.1 nM-10 μM) for another 30 min.

Row | SMILES | IC50 [nM]
1 | C[C@@H]1CCCN(C(=O)c2c(-n3nccn3)ccc(F)c2F)[C@@H]1CNc1ccc(C(F)(F)F)cn1 [Example A336, (2,3-Difluoro-6-(2H-1,2,3-triazol-2-yl)phenyl)((2S,3R)-3-methyl-2-(((5-(trifluoromethyl)pyridin-2-yl)amino)m*ethyl)piperidin-1-yl)methanone] | 10
2 | Cc1ccc(-c2ccccn2)c(C(=O)N2CCC[C@@H](C)[C@H]2CNc2ccc(F)cn2)c1 [Example A58, ((2S,3R)-2-(((5-Fluoropyridin-2-yl)amino)methyl)-3-methylpiperidin-1-yl)(5-methyl-2-(pyridin-2-yl)phenyl)methanone] | 230
3 | Cc1ccc(-c2ccnc(C)c2)c(C(=O)N2CCC[C@@H](C)[C@H]2CNc2ccc(F)cn2)c1 [Example A53, ((2S,3R)-2-(((5-Fluoropyridin-2-yl)amino)methyl)-3-methylpiperidin-1-yl)(5-methyl-2-(2-methylpyridin-4-yl)phenyl)methanone] | 670
4 | Cc1ccc(-c2ccnn2C)c(C(=O)N2CCC[C@@H](C)[C@H]2CNc2ccc(F)cn2)c1 [Example A61, ((2S,3R)-2-(((5-Fluoropyridin-2-yl)amino)methyl)-3-methylpiperidin-1-yl)(5-methyl-2-(1-methyl-1H-pyrazol-5-yl)phenyl)methanone] | 1100
5 | Cc1ccc(C(=O)N2CCC[C@@H](C)[C@H]2CNc2ccc(C(F)(F)F)cn2)c(-n2nccn2)c1 [Example A273, ((2S,3R)-3-Methyl-2-(((5-(trifluoromethyl)pyridin-2-yl)amino)methyl)piperidin-1-yl)(4-methyl-2-(2H-1,2,3-triazol-2-yl)phenyl)methanone] | 6

same assay, conditions: Table 2; CHO-OX1 cells, EC90 of OXA; read-out: IC50 Bioactivity OX1

Row | SMILES | IC50 [nM]
6 | Cc1nc(-c2ccccc2)c(C(=O)N2CC[C@H](O)[C@H]2CNC(=O)c2cccc3cccnc23)s1 [Example 130, N-(((2R,3S)-3-Hydroxy-1-(2-methyl-4-phenylthiazole-5-carbonyl)pyrrolidin-2-yl)methyl)quinoline-8-carboxamide] | 6
7 | CC[C@@H]1CCCN(C(=O)c2nc(C)sc2-c2ccc(F)cc2)[C@@H]1CNc1ccc(C(F)(F)F)cn1 (racemic) [Example 76, rac-cis-(3-Ethyl-2-(((5-(trifluoromethyl)pyridin-2-yl)amino)methyl)piperidin-1-yl)(5-(4-fluorophenyl)-2-methylthiazol-4-yl)methanone] | 300
8 | COc1ccnc(NC[C@@H]2[C@H](C)CCCN2C(=O)c2nc(C)sc2-c2ccc(F)cc2)n1 (racemic) [Example 17, rac-cis-(5-(4-Fluorophenyl)-2-methylthiazol-4-yl)(2-(((4-methoxypyrimidin-2-yl)amino)methyl)-3-methylpiperidin-1-yl)methanone] | 52
9 | Cc1nc(C(=O)N2C[C@H]3CCC[C@H]3C2CNc2nc3ccccc3o2)c(-c2ccc(F)cc2)s1 (mixture of isomers) [Example 100, (1-((Benzo[d]oxazol-2-ylamino)methyl)hexahydrocyclopenta[c]pyrrol-2(1H)-yl)(5-(4-fluorophenyl)-2-methylthiazol-4-yl)methanone] | 8
10 | CCNC1CCC(CNC(=O)c2cccc3cccnc23)N(C(=O)c2sc(C)nc2-c2ccccc2)C1 (racemic) [Example 46, N-((5-(Ethylamino)-1-(2-methyl-4-phenylthiazole-5-carbonyl)piperidin-2-yl)methyl)quinoline-8-carboxamide] | < 10000
11 | Cc1nc(C(=O)N2CCC[C@@H](C)[C@H]2CNc2ncc(Cl)cn2)c(-c2ccc(F)cc2)s1 (racemic) [Example 82, rac-cis-(2-(((5-Chloropyrimidin-2-yl)amino)methyl)-3-methylpiperidin-1-yl)(5-(4-fluorophenyl)-2-methylthiazol-4-yl)methanone] | 4
12 | Cc1nc(C(=O)N2CC(F)(F)CCC2CNC(=O)c2cccc3cccnc23)c(-c2ccccc2)s1 (racemic) [Example 56, rac-N-((5,5-Difluoro-1-(2-methyl-5-phenylthiazole-4-carbonyl)piperidin-2-yl)methyl)quinoline-8-carboxamide] | < 100
13 | Cc1ccc(-n2ccnn2)c(C(=O)N2CCC[C@@H](C)[C@H]2CNc2ccc(C(F)(F)F)cn2)c1 (racemic) [Example 115, rac-cis-(3-Methyl-2-(((5-(trifluoromethyl)pyridin-2-yl)amino)methyl)piperidin-1-yl)(5-methyl-2-(1H-1,2,3-triazol-1-yl)phenyl)methanone] | 10
14 | Cc1nc(C(=O)N2CCC[C@@H](C)[C@H]2CNc2ncccc2C(F)(F)F)c(-c2ccc(F)cc2)s1 (racemic) [Example 22, rac-cis-(5-(4-Fluorophenyl)-2-methylthiazol-4-yl)(3-methyl-2-(((3-(trifluoromethyl)pyridin-2-yl)amino)methyl)piperidin-1-yl)methanone] | 82
15 | Cc1nc(-c2ccccc2)c(C(=O)N2CCC(F)(F)[C@H]2CNC(=O)c2cccc3cccnc23)s1 [Example 133, (R)—N-((3,3-Difluoro-1-(2-methyl-4-phenylthiazole-5-carbonyl)pyrrolidin-2-yl)methyl)quinoline-8-carboxamide] | 12
16 | Cc1nc(C(=O)N2CC(N)CCC2CNC(=O)c2cccc3cccnc23)c(-c2cccc(F)c2)s1 (racemic) [Example 53, N-((5-Amino-1-(5-(3-fluorophenyl)-2-methylthiazole-4-carbonyl)piperidin-2-yl)methyl)quinoline-8-carboxamide] | 65
17 | C[C@@H]1CCCN(C(=O)c2ccccc2Oc2ccccc2)[C@@H]1CNc1ccc(C(F)(F)F)cn1 (racemic) [Example 118, rac-cis-(3-Methyl-2-(((5-(trifluoromethyl)pyridin-2-yl)amino)methyl)piperidin-1-yl) (2-phenoxyphenyl)methanone] | 262
18 | CN(C)C1CCC(CNC(=O)c2cccc3cccnc23)N(C(=O)c2ccccc2-c2ccccc2)C1 (racemic) [Example 41, N-((1-(Biphenylcarbonyl)-5-(dimethylamino)piperidin-2-yl)methyl)quinoline-8-carboxamide] | 1500
19 | Cc1nc(-c2ccccc2)c(C(=O)N2CC(O)CCC2CNC(=O)c2cccc3cccnc23)s1 (racemic) [Example 33, N-((5-Hydroxy-1-(2-methyl-4-phenylthiazole-5-carbonyl)piperidin-2-yl)methyl)quinoline-8-carboxamide] | 20
20 | Cc1cc2c(C(=O)NCC3CCC(F)(F)CN3C(=O)c3nc(C)sc3-c3ccc(F)cc3)cccc2o1 (racemic) [Example 57, rac-N-((5,5-Difluoro-1-(5-(4-fluorophenyl)-2-methylthiazole-4-carbonyl)piperidin-2-yl)methyl)-2-methylbenzofuran-4-carboxamide] | < 100
21 | Cc1nc(C(=O)N2CCC[C@@H](C(C)C)[C@H]2CNc2nc3ccccc3o2)c(-c2ccc(F)cc2)s1 (racemic) [Example 84, rac-cis-((2S,3S)-2-((Benzo[d]oxazol-2-ylamino)methyl)-3-isopropylpiperidin-1-yl)(5-(4-fluorophenyl)-2-methylthiazol-4-yl)methanone] | 35
22 | O=C(NCC1CCC(F)CN1C(=O)c1ccccc1-c1ccccc1)c1cccc2cccnc12 (single isomer, unassigned) [Example 37, N-((1-(Biphenylcarbonyl)-5-fluoropiperidin-2-yl)methyl)quinoline-8-carboxamide] | 1
23 | CCc1cnc(NC[C@@H]2[C@H](C)CCCN2C(=O)c2nc(C)sc2-c2ccc(F)cc2)nc1 (racemic) [Example 16, rac-cis-(2-(((5-Ethylpyrimidin-2-yl)amino)methyl)-3-methylpiperidin-1-yl)(5-(4-fluorophenyl)-2-methylthiazol-4-yl)methanone] | 8
24 | Cc1nc(C(=O)N2CCC[C@@H](C)[C@H]2CNc2cncc(Cl)n2)c(-c2ccc(F)cc2)s1 (racemic) [Example 123, rac-cis-(2-(((6-Chloropyrazin-2-yl)amino)methyl)-3-methylpiperidin-1-yl)(5-(4-fluorophenyl)-2-methylthiazol-4-yl)methanone] | 3600
25 | Cc1nc(C(=O)N2CC(F)CCC2CNC(=O)c2cccc3cccnc23)c(-c2ccccc2)s1 (racemic) [Example 1, N-((5-Fluoro-1-(2-methyl-5-phenylthiazole-4-carbonyl)piperidin-2-yl)methyl)quinoline-8-carboxamide] | 1
26 | O=C(NC[C@@H]1[C@H]2CCCC[C@H]2CN1C(=O)c1ccccc1-c1ccccc1)c1cccc2cccnc12 (racemic) [Example 66, N-(((1S,3aR,7aS)-2-(Biphenylcarbonyl)octahydro-1H-isoindol-1-yl)methyl)quinoline-8-carboxamide] | 350
